Data reported in patent US20230391756A1, “NEW COMPOUND” (JANSSEN PHARMACEUTICA NV, priority 2020, published 2023).

Key:
TNF = test: PBMC assay: TNF cytokine level after LPS stimulation; format: cell-based; details: human PBMCs, 100 ng/ml LPS for 6 hrs, MSD, read-out: TNFα EC50
Description: (§1) Peripheral venous blood was collected from healthy individuals and human peripheral blood mononuclear cells (PBMCs) were isolated from blood by Ficoll-Histopaque (Sigma-Aldrich, A0561) density gradient centrifugation. After isolation, PBMCs were stored in liquid nitrogen for later use. Upon thawing, PBMC cell viability was determined in growth medium (RPMI media supplemented with 10% fetal bovine serum, 1% Pen-Strep and 1% L-glutamine). […] PBMCs were added at a density of 7.5×10^4 cells per well and incubated for 30 min in a 5% CO2 incubator at 37° C. LPS stimulation was performed by addition of 100 ng/ml LPS (final concentration, Invivogen, tlrl-smlps) for 6 hrs followed by collection of cellular supernatant and the analysis of IL-1β (μM) and TNF cytokines levels (μM) via MSD technology according to manufacturers' guidelines (MSD, K151A0H).

[1] = tested on: NLRP3 inflammasome pathway (IL-1β); test: PBMC assay: IL-1β release after LPS stimulation; format: cell-based; details: human PBMCs, 100 ng/ml LPS for 6 hrs, MSD
Description: The activity of a compound according to the present invention can be assessed by in vitro methods.
as §1

Compound	EC50 (TNF)	IC50 [1]
CC(C)n1nc(CC(=O)Nc2ccc3nncn3n2)c(=O)c2ccc(Br)cc21 [F-134]	> 20 µM	0.048 µM
CCN1CC[C@H](C)[C@H](NC(=O)Cc2nn(C(C)C)c3cc(C(F)(F)F)ccc3c2=O)C1 (single isomer, unassigned) [F-103]	> 20 µM	4.97 µM
CCn1nc(CC(=O)Nc2ccc3nncn3c2)c(=O)c2ccc(C3CC3)cc21 [F-82]	> 20 µM	0.18 µM
CC(C)n1nc(CC(=O)NC2CC(C(C)(C)O)C2)c(=O)c2ccc(C(F)(F)F)cc21 (stereo not shown) [F-9]	> 20 µM	10.2 µM
CC(C)n1nc(CC(=O)Nc2nc3nccc(C4CC4)n3n2)c(=O)c2ccc(C(F)(F)F)cc21 [F-120]	> 20 µM	11.6 µM
CC(C)n1nc(CC(=O)Nc2nc3cc(Cl)ccc3o2)c(=O)c2ccc(C(F)(F)F)cc21 [F-102]	> 20 µM	6.03 µM
CCn1nc(CC(=O)Nc2ccc3nncn3n2)c(=O)c2ccc(Br)cc21 [F-73]	> 20 µM	0.06 µM
CC(C)n1nc(CC(=O)Nc2ccc3nccn3c2)c(=O)c2ccc(C(F)(F)F)cc21 [F-35]	19.9 µM	0.79 µM
CC(C)n1nc(CC(=O)Nc2cn3cnnc3cn2)c(=O)c2ccc(C(F)(F)F)cc21 [F-112]	> 20 µM	0.53 µM
Cc1ccn2nc(NC(=O)Cc3nn(C(C)C)c4cc(C(F)(F)F)ccc4c3=O)nc2n1 [F-128]	> 20 µM	0.66 µM
O=C(Cc1nn(C2CC2)c2cc(Br)ccc2c1=O)Nc1ccc2nncn2n1 [F-144]	> 20 µM	0.078 µM
CC(C)n1nc(CC(=O)Nc2nc3ccc(C(F)(F)F)cn3n2)c(=O)c2ccc(C(F)(F)F)cc21 [F-121]	> 20 µM	6.87 µM
CCn1nc(CC(=O)Nc2ccncn2)c(=O)c2ccc(C3CC3)cc21 [F-8]	12.9 µM	0.66 µM
CC(C)n1nc(CC(=O)Nc2ccc3nncn3n2)c(=O)c2ccc(C3CC3)cc21 [F-133, N-([1,2,4]triazolo[4,3-b]pyridazine-6-yl)-2-(7-cyclopropyl-1-isopropyl-4-oxo-1,4-dihydrocinnolin-3-yl)acetamide]	15.6 µM	0.16 µM
O=C(Cc1nn(C2CC2)c2cc(C(F)(F)F)ccc2c1=O)Nc1ccc2nncn2c1 [F-63]	> 20 µM	0.27 µM
CC(C)n1nc(CC(=O)Nc2ccc3nc(C(F)(F)F)cn3c2)c(=O)c2ccc(C(F)(F)F)cc21 [F-131]	> 20 µM	0.656 µM
CC(C)n1nc(CC(=O)Nc2cn3cccnc3n2)c(=O)c2ccc(C(F)(F)F)cc21 [F-123]	> 20 µM	1.97 µM
CC(C)n1nc(CC(=O)Nc2cc3ncccn3n2)c(=O)c2ccc(C(F)(F)F)cc21 [F-125]	> 20 µM	2.59 µM
Cc1nnc2ccc(NC(=O)Cc3nn(C(C)C)c4cc(C(F)(F)F)ccc4c3=O)nn12 [F-135]	> 20 µM	0.59 µM
CC(C)n1nc(CC(=O)Nc2cn3ccncc3n2)c(=O)c2ccc(C(F)(F)F)cc21 [F-126]	> 20 µM	5.62 µM
CC(C)n1nc(CC(=O)Nc2nc3ccc(Br)nn3n2)c(=O)c2ccc(C(F)(F)F)cc21 [F-118]	> 10 µM	1.61 µM
CCn1nc(CC(=O)Nc2ccc3nncn3n2)c(=O)c2ccc(C(C)C)cc21 [F-142]	~12.8 µM	0.119 µM
CC(C)n1nc(CC(=O)Nc2ccc(=O)n(C)n2)c(=O)c2ccc(C(C)(F)F)cc21 [F-53]	9.74 µM	0.71 µM
COc1ccc2nc(NC(=O)Cc3nn(C(C)C)c4cc(C(F)(F)F)ccc4c3=O)nn2c1 [F-119]	> 20 µM	2.18 µM
CC(C)n1nc(CC(=O)Nc2ccc(C(F)F)nn2)c(=O)c2ccc(C(F)(F)F)cc21 [F-87]	> 20 µM	13.4 µM

Compound	EC50 (TNF)	IC50 [1]
CC(C)n1nc(CC(=O)Nc2nc3ncc(Br)cn3n2)c(=O)c2ccc(C(F)(F)F)cc21 [F-129]	> 20 µM	3.23 µM
CC(C)n1nc(CC(=O)Nc2cn3cc(Br)ncc3n2)c(=O)c2ccc(C(F)(F)F)cc21 [F-116, N-(6-bromoimidazo[1,2-a]pyrazin-2-yl)-2-(1-isopropyl-4-oxo-7-(trifluoromethyl)-1,4-dihydrocinnolin-3-yl)acetamide]	> 20 µM	3.8 µM
O=C(Cc1nn(C2CC2)c2cc(C3CC3)ccc2c1=O)Nc1ccc2nncn2n1 [F-137]	4.46 µM	0.28 µM
CCN1CC[C@@H](C)[C@@H](NC(=O)Cc2nn(C(C)C)c3cc(C(F)(F)F)ccc3c2=O)C1 (single isomer, unassigned) [F-88]	> 20 µM	> 20 µM
O=C(Cc1nn(C2CC2)c2cc(C3CC3)ccc2c1=O)Nc1ccc2nccn2n1 [F-55]	> 20 µM	0.62 µM
CC(C)n1nc(CC(=O)Nc2ccc3nccn3n2)c(=O)c2ccc(C(C)(F)F)cc21 [F-138]	3.43 µM	0.24 µM
Cc1nnc2n1C[C@@H](NC(=O)Cc1nn(C(C)C)c3cc(C(F)(F)F)ccc3c1=O)CC2 (single isomer, unassigned) [F-13]	> 20 µM	2.7 µM
CC(C)n1nc(CC(=O)Nc2nc3cnccn3n2)c(=O)c2ccc(C(F)(F)F)cc21 [F-124]	> 20 µM	0.123 µM
CC(C)n1nc(CC(=O)Nc2ccc3nncn3c2)c(=O)c2ccc(C(C)(F)F)cc21 [F-149, N-([1,2,4]triazolo[4,3-a]pyridin-6-yl)-2-(7-(1,1-difluoroethyl)-1-isopropyl-4-oxo-1,4-dihydrocinnolin-3-yl)acetamide]	> 20 µM	0.19 µM
CC(C)n1nc(CC(=O)Nc2ccc(=O)n(C)c2)c(=O)c2ccc(C(C)(F)F)cc21 [F-52]	16.1 µM	0.84 µM
O=C(Cc1nn(C2CC2)c2cc(C3CC3)ccc2c1=O)Nc1cn2cnnc2cn1 [F-109]	> 20 µM	0.99 µM
CC(C)n1nc(CC(=O)N[C@H]2C[C@@](C)(O)C2)c(=O)c2ccc(C3CC3)cc21 [F-80]	> 20 µM	1.21 µM
CC(C)n1nc(NC(=O)Nc2ccc3nncn3c2)c(=O)c2ccc(C(F)(F)F)cc21 [F-150, 1-([1,2,4]triazolo[4,3-a]pyridin-6-yl)-3-(1-isopropyl-4-oxo-7-(trifluoromethyl)-1,4-dihydrocinnolin-3-yl)urea]	17.1 µM	2.45 µM
CC(C)n1nc(CC(=O)Nc2cc3c(cn2)ncn3C)c(=O)c2ccc(C(F)(F)F)cc21 [F-44]	> 20 µM	4.91 µM
CC(C)n1nc(CC(=O)Nc2ccc(C(F)(F)F)nn2)c(=O)c2ccc(C(F)(F)F)cc21 [F-84, 2-(1-isopropyl-4-oxo-7-(trifluoromethyl)-1,4-dihydrocinnolin-3-yl)-N-(6-(trifluoromethyl)pyridazine-3-yl)acetamide]	> 20 µM	> 20 µM
CCn1nc(CC(=O)N[C@H]2C[C@@](C)(O)C2)c(=O)c2ccc(C3CC3)cc21 [F-83]	> 20 µM	1.15 µM
CC(C)n1nc(CC(=O)Nc2nc3ccc(Cl)cc3n2C)c(=O)c2ccc(C(F)(F)F)cc21 [F-89]	> 20 µM	> 20 µM
O=C(Cc1nn(C2CC2)c2cc(C3CC3)ccc2c1=O)Nc1ccc2nncn2c1 [F-59]	> 20 µM	0.37 µM
Cc1ccn2nc(NC(=O)Cc3nn(C(C)C)c4cc(C(F)(F)F)ccc4c3=O)nc2c1 [F-122]	> 20 µM	0.354 µM
CCS(=O)(=O)c1ccc2oc(NC(=O)Cc3nn(C(C)C)c4cc(C(F)(F)F)ccc4c3=O)nc2c1 [F-105]	> 20 µM	2.4 µM
CC(C)n1nc(CC(=O)Nc2ccncn2)c(=O)c2ccc(C3CC3)cc21 [F-79, 2-(7-cyclopropyl-1-isopropyl-4-oxo-1,4-dihydrocinnolin-3-yl)-N-(pyrimidin-4-yl)acetamide]	16.6 µM	–
CCn1nc(CC(=O)Nc2ccc3nccn3n2)c(=O)c2ccc(C(C)(F)F)cc21 [F-65]	8.36 µM	0.24 µM
CC(C)n1nc(CC(=O)Nc2ccn3ncnc3c2)c(=O)c2ccc(C(F)(F)F)cc21 [F-37]	> 20 µM	1.65 µM
CC(C)n1nc(CC(=O)Nc2nc3cccnc3o2)c(=O)c2ccc(C(F)(F)F)cc21 [F-127]	> 20 µM	4.35 µM
